Experimental data taken from patent US8778966B2, “Quinolinone derivatives as PARP and tank inhibitors” (Janssen Pharmaceutica, NV, priority 2007, dated 2014).

These molecules were tested against T1, TANK-2 enzyme (Homo sapiens, UniProt Q9H2K2) (assay: In vitro Scintillation Proximity Assay (SPA) for TANK-2 inhibitory activity). Settings: read-out: in vitro SPA assay TANK-2 pIC50 (converted).
T1 construct: made in house
T1 sequence (Q9H2K2 1-1166): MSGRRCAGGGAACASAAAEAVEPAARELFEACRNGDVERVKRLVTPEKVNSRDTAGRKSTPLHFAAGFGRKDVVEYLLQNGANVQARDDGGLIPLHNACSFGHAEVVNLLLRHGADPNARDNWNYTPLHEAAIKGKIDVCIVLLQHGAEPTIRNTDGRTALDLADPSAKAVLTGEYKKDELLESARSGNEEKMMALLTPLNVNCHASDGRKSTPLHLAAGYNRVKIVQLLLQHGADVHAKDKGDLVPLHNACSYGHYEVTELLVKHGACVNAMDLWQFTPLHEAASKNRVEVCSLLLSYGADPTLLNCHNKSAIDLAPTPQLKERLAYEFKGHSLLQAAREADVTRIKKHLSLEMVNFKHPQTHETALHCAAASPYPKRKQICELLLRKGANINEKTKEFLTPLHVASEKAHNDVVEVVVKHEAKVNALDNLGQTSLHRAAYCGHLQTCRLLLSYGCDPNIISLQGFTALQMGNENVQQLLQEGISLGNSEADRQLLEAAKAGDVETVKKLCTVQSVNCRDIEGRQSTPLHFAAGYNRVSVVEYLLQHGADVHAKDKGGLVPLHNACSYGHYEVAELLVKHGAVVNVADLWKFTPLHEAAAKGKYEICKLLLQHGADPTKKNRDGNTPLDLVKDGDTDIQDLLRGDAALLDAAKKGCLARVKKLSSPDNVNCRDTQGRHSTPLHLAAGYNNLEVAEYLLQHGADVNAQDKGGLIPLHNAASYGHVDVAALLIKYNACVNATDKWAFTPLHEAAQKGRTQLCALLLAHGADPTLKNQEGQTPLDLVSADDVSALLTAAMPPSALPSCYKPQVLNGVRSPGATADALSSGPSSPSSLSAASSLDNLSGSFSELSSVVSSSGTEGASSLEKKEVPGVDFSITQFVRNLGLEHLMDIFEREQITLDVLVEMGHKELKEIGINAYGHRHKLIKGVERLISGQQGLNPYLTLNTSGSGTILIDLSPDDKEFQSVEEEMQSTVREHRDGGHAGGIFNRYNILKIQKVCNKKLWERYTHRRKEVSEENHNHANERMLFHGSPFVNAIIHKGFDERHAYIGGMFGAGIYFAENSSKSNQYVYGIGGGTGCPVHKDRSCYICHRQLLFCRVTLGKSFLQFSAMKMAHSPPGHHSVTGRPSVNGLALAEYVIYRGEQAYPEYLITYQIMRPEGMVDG
Assay type: biochemical
Procedure, shortened: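 TANK-2 (8 μg/ml final) auto-poly(ADP-ribosyl)ation with [3H]-NAD+/NAD donor was run in Ni flash plates in Tris/HCl pH 7.4 buffer with DTT and MgCl2, 120 min at room temperature, then stopped with excess NAD and scintillation-counted. Blank-corrected cpm was expressed as % of enzyme control, and IC50 was linearly interpolated and reported as pIC50.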

Row | IC50 [nM] | Compound
1 | 200 | CCc1cc2ccc(C(C)(C#N)Cc3nc(N(C)C)cc(N(C)C)n3)cc2[nH]c1=O (centres unmarked) [Compound 205]
2 | 501 | CCc1cc2ccc(C(C)(C#N)Cc3cccc(N4CCC(N(C)C)C4)n3)cc2[nH]c1=O (centres unmarked) [Compound 209]
3 | 158 | CCc1cc2ccc(C(C)(C#N)Cc3cccc(C#Cc4cncn4C)n3)cc2[nH]c1=O (centres unmarked) [Compound 217]
4 | 1000 | CCc1cc2ccc(C(C)(C#N)Cc3cccc(N(C)CCc4ccccc4)n3)cc2[nH]c1=O.Cl (centres unmarked) [Compound 220]
5 | 15.8 | CCc1cc2ccc(C(C)(C#N)Cc3cccc(C#N)[n+]3[O-])cc2[nH]c1=O (centres unmarked) [Compound 228]
6 | 10 | CCc1cc2c(OC)cc(C(C)(C#N)Cc3nc(OC)cc(OC)n3)cc2[nH]c1=O (centres unmarked) [Compound 229]
7 | 158 | CCc1cc2ccc(C(C)(C#N)CN3CCN(c4ccccn4)CC3)cc2[nH]c1=O (centres unmarked) [Compound 233]
8 | 1000 | Cc1nc(-c2ccccc2)sc1CC(C)(C#N)c1ccc2cc(C)c(=O)[nH]c2c1 (centres unmarked) [Compound 235]
9 | 126 | CCc1cc2ccc(C(C)(C#N)Cc3cccc4c3CCN4)cc2[nH]c1=O (centres unmarked) [Compound 237]
10 | 794 | CCc1cc2ccc(C(C)(C#N)Cc3cccc(C(=O)OC(C)C)c3)cc2[nH]c1=O (centres unmarked) [Compound 255]
11 | 1260 | Cc1cc2ccc(C(C)(C#N)Cc3cccc(I)c3)cc2[nH]c1=O (centres unmarked) [Compound 256]
12 | 251 | CCc1cc2ccc(C(C)(C#N)Cc3cccc(NC)c3)cc2[nH]c1=O (centres unmarked) [Compound 257]
13 | 251 | CCc1cc2ccc(C(C)(C#N)Cc3cc(Br)cc(N(C)C)c3)cc2[nH]c1=O (centres unmarked) [Compound 260]
14 | 2510 | Cc1cc2ccc(C(C)(C#N)Cc3cccc(OCC4CCOCC4)c3)cc2[nH]c1=O (centres unmarked) [Compound 261]
15 | 126 | CCc1cc2ccc(C(C)(C#N)Cc3cc(F)ccc3F)cc2[nH]c1=O (centres unmarked) [Compound 280]
16 | 158 | CCc1cc2ccc(C(C)(C#N)Cc3ccc(F)c(F)c3)cc2[nH]c1=O (centres unmarked) [Compound 281]
17 | 398 | CCc1cc2ccc(C(C)(C#N)Cc3cc(C(F)(F)F)ccc3F)cc2[nH]c1=O (centres unmarked) [Compound 283]
18 | 251 | CCOc1cccc(CC(C)(C#N)c2ccc3cc(CC)c(=O)[nH]c3c2)c1 (centres unmarked) [Compound 285]
19 | 200 | CCc1cc2ccc(C(C)(C#N)Cc3cccc(OC)c3F)cc2[nH]c1=O (centres unmarked) [Compound 286]
20 | 1000 | CCc1cc2ccc(C(C)(C#N)Cc3cc(C(C)C)ccc3OC)cc2[nH]c1=O (centres unmarked) [Compound 288]
21 | 251 | CCc1cc2ccc(C(C)(C#N)Cc3cc(OC)c(OC)c(OC)c3)cc2[nH]c1=O (centres unmarked) [Compound 289]
22 | 158 | CCc1cc2ccc(C(C)(C#N)Cc3cccc(/C=N/O)c3)cc2[nH]c1=O (centres unmarked) [Compound 299]
23 | 398 | CCc1cc2ccc(C(C)(C#N)CN(C)Cc3ccc(C#N)cc3)cc2[nH]c1=O (centres unmarked) [Compound 300]
24 | 100 | CCc1cc2ccc(C(C)(C#N)CNCc3ccc(C#N)cc3)cc2[nH]c1=O (centres unmarked) [Compound 302]
25 | 1580 | Cc1cc2ccc(C(C)(C#N)Cc3cccc(Oc4ccccc4)c3)cc2[nH]c1=O (centres unmarked) [Compound 305]

Row | IC50 [nM] | Compound
26 | 100 | CCc1cc2ccc(C(C)(C#N)Cc3nc(C#N)cc(OC)n3)cc2[nH]c1=O (centres unmarked) [Compound 313]
27 | 25.1 | CCc1cc2ccc(C(C)(C#N)Cc3cc(C#N)nc(OC)c3)cc2[nH]c1=O (centres unmarked) [Compound 314]
28 | 100 | CCc1cc2ccc(C(C)(C#N)Cc3cc(N(C)C)nc(C#N)n3)cc2[nH]c1=O (centres unmarked) [Compound 317]
29 | 126 | CCc1cc2ccc(C(C)(C#N)Cc3nc(C#N)cc(N(C)C)n3)cc2[nH]c1=O (centres unmarked) [Compound 318]
30 | 63.1 | CCc1cc2ccc(C(C)(C#N)Cc3cc(C#N)nc(C)n3)cc2[nH]c1=O (centres unmarked) [Compound 319]
31 | 200 | CCc1cc2ccc(C(C)(C#N)Cc3cc(N(C)C)nc(N(C)C)n3)cc2[nH]c1=O (centres unmarked) [Compound 320]
32 | 251 | CCc1cc2ccc(C(C)(C#N)Cc3cc(N(C)C)nc(C)n3)cc2[nH]c1=O (centres unmarked) [Compound 322]
33 | 251 | CCc1cc2ccc(C(C)(C#N)Cc3cc(Cl)nc(N(C)C)c3)cc2[nH]c1=O (centres unmarked) [Compound 323]
34 | 63.1 | CCc1cc2ccc(C(C)(C#N)Cc3cc(C#N)nc(N(C)C)c3)cc2[nH]c1=O (centres unmarked) [Compound 325]
35 | 100 | CCc1cc2ccc(C(C)(C#N)Cc3cccc(NC)n3)cc2[nH]c1=O (centres unmarked) [Compound 339]
36 | 501 | CCc1cc2ccc(C(C)(C#N)Cc3ccc4c(c3)OC(F)(F)O4)cc2[nH]c1=O (centres unmarked) [Compound 346]
37 | 200 | CCc1cc2ccc(C(C)(C#N)Cc3c4ccccc4nn3C)cc2[nH]c1=O (centres unmarked) [Compound 347]
38 | 126 | CCc1cc2ccc(C(C)(C#N)Cc3cc(OC)nc(OC)c3)cc2[nH]c1=O (centres unmarked) [Compound 350]
39 | 158 | CCc1cc2ccc(C(C)(C#N)Cc3cc(Cl)nc(OC)c3)cc2[nH]c1=O (centres unmarked) [Compound 351]
40 | 79.4 | CCc1cc2ccc(C(C)(C#N)Cc3cc(N(C)C)nc(OC)n3)cc2[nH]c1=O (centres unmarked) [Compound 354]
41 | 158 | CCc1cc2ccc(C(C)(C#N)Cc3nc(OC)cc(N(C)C)n3)cc2[nH]c1=O (centres unmarked) [Compound 355]
42 | 79.4 | CCc1cc2ccc(C(C)(C#N)Cc3cc(Cl)nc(C)n3)cc2[nH]c1=O (centres unmarked) [Compound 365]
43 | 398 | CCc1cc2ccc(C(C)(C#N)CN3CCC(c4ccccc4)CC3)cc2[nH]c1=O (centres unmarked) [Compound 375]
44 | 50.1 | CCc1cc2ccc(C(C)(C#N)CN3CCN(c4ccc(C#N)cn4)CC3)cc2[nH]c1=O (centres unmarked) [Compound 377]
45 | 251 | CCc1cc2ccc(C(C)(C#N)Cc3cc(Br)cc4c3OCC4)cc2[nH]c1=O (centres unmarked) [Compound 378]
46 | 100 | CCc1cc2ccc(C(C)(C#N)Cc3cccc4[nH]ccc34)cc2[nH]c1=O (centres unmarked) [Compound 379]
47 | 2510 | Cc1cc2ccc([C@](C)(C#N)[C@H]3CCc4ccccc43)cc2[nH]c1=O [Compound 387]
48 | 1260 | Cc1cc2ccc(C(C)(C#N)C3CCc4ccccc43)cc2[nH]c1=O (centres unmarked) [Compound 392]
49 | 2000 | Cc1cc2ccc(C(C)(C#N)C3CCCc4ccccc43)cc2[nH]c1=O (centres unmarked) [Compound 404]
50 | 1000 | Cc1cc2ccc(C(C)(C#N)Cc3cccc(/C=C/CCO)c3)cc2[nH]c1=O (centres unmarked) [Compound 409]
